For this assay, the system named is cell-surface tissue factor on baboon smooth muscle cells. As to the kind of experiment: Cell-surface Factor Xa generation on baboon SMCs. The format is cell-based. An excerpt:
A cell-surface chromogenic assay was developed, essentially as described in Example VIII above, to measure the efficacy of DEGR-FVIIa to block FVIIa binding to cell-surface tissue factor and the subsequent conversion of Factor X to Factor Xa on monolayers of baboon smooth muscle cells (SMCs). This method is a modification of those described by Sakai et al., J. Bio. Chem. 264:9980-9988 (1989) and Wildgoose et al., Proc. Natl. Acad. Sci. USA. 87:7290-7294 (1990). Baboon SMCs were obtained from the University of Washington, Seattle, Wash., and were cultured from aortic explants. The baboon SMCs were plated into 96-well culture dishes at a concentration of 8,000 cells/well in 200 μl/well DMEM culture media supplemented with 10% fetal calf serum, and maintained in this media for 4 days at 37° C. in 5% CO2. At the time of assay 110 μl of culture media was removed, and increasing concentrations of FVIIa or FVIIa in combination with DEGR-FVIIa were added to wells. A standard curve for FVIIa concentration was generated, ranging from 5 nM to 0.04 nM. […] Twenty-five microliters per well of 0.8 mM S-2222, a factor Xa-specific chromogenic substrate, in Tris buffer was added and the absorbance at 405 nm read after 60 mins in a Thermomax microplate reader (Molecular Devices Corp., Menlo Park, Calif.).

Regarding “DEGR-Factor VIIa: Recombinant human Factor VIIa with its active site derivatized by Dansyl-L-Glu-Gly-Arg-chloromethyl Ketone (DEGRck)”, the “inhibition in the generation of Factor Xa chromogenic activity” value (10-fold lower level of DEGR-FVIIa than FVIIa (5 nM)) is reported as 40%. The “inhibition of the chromogenic activity” value (equal molar ratio of DEGR-FVIIa to FVIIa (5 nM)) is reported as > 90%.

The record behind these values is patent US20040087498A1, “Modified factor VII” (Novo Nordisk Health Care AG, priority 1991, published 2004).
